Residues, ends and D or L forms follow the SMILES beside them.
The compounds below were run against hT1R2/T1R3mosaicC (UniProt Q8TE23+Q925D8, A558R/A588V/A645S/A698V/A702T/A793V/A807V/C582S/C678S/D172E/D176A/D217E/E221Q/E725V/F541I/F612A/F622V/F695L/H728R/I617V/I706V/I740A/I803L/K555R/K565R/K818R/K827G/L560F/L684P/L735F/L823M/L825Q/M644L/M744T/N203E/N231A/N547G/N675D/P545F/P561R/P564S/Q195T/Q550E/Q611L/Q757R/Q795R/Q831P/R173L/R632Q/S168G/S205G/S228A/S576L/S595F/S610P/S635P/S637R/S679G/S717H/T199E/T542A/T663I/T694M/T813A/V197A/V198A/V573A/V584A/V718M/V723A/V729T/V738A/V805L/V812A/V821L/W599R/W676R/W824R/Y680C/Y794L). Details: Table 6; genes hT2/T1R3mC (hT1R2, T1R3mC); HEK293E cells.
hT1R2/T1R3mosaicC, sequence (Q8TE23 20-839, stated change not applied): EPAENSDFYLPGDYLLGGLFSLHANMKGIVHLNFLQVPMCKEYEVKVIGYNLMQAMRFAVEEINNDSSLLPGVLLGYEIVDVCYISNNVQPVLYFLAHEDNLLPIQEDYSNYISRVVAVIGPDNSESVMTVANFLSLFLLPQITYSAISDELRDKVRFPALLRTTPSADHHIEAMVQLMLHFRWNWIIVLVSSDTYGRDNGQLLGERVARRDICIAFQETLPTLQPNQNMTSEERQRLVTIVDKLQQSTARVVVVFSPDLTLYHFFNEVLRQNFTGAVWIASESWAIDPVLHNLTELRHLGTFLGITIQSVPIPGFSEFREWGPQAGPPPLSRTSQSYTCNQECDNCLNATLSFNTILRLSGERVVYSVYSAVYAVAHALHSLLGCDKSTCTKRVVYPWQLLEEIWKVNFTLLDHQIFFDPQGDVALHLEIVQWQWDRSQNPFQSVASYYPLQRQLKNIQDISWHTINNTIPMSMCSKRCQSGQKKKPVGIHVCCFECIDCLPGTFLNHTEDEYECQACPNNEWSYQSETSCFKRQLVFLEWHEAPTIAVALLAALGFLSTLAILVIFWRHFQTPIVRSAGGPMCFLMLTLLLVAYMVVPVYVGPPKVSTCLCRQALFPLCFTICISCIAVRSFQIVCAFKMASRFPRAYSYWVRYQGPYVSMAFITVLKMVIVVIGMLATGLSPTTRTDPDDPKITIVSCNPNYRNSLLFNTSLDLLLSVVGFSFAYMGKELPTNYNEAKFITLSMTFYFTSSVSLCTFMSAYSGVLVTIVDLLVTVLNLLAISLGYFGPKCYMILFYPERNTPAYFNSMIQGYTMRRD
hT1R2/T1R3mosaicC, sequence (Q925D8 with tags, fused parts or gaps with the stated changes limits assumed): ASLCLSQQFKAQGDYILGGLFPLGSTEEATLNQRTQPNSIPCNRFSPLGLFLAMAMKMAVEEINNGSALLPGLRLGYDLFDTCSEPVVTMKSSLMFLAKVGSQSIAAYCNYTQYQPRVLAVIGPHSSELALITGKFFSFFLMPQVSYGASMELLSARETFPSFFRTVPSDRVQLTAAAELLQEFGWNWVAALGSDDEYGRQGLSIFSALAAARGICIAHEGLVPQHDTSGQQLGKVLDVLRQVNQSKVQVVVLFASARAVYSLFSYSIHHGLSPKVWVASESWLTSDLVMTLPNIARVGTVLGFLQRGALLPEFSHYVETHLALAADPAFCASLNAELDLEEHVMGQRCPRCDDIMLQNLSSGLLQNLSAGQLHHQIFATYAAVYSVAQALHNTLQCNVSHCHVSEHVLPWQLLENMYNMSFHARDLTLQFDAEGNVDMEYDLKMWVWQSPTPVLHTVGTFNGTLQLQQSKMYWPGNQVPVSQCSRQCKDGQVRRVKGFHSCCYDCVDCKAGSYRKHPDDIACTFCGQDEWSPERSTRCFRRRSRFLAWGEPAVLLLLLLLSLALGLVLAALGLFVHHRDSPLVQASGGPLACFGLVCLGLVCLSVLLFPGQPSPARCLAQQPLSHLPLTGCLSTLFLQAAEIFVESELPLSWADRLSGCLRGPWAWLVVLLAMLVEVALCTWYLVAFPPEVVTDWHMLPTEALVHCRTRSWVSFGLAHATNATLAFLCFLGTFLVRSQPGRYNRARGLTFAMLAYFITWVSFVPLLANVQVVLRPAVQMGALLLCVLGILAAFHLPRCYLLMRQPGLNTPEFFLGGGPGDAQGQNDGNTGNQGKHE

Compound | S/N
COc1ccc(CCC(=O)c2c(O)cc(O[C@@H]3O[C@H](CO)[C@@H](O)[C@H](O)[C@H]3O[C@@H]3O[C@@H](C)[C@H](O)[C@@H](O)[C@H]3O)cc2O)cc1O [NHDC, neohesperidin dihydrochalcone] | 3.8
OC[C@H]1O[C@@](CO)(O[C@H]2O[C@H](CO)[C@@H](O)[C@H](O)[C@H]2O)[C@@H](O)[C@@H]1O [Sucrose, sucrose] | 3.4
O=C1NS(=O)(=O)c2ccccc21.[Na] [Saccharin Na, sodium saccharin] | 3.6
COC(=O)[C@H](Cc1ccccc1)NC(=O)[C@@H](N)CC(=O)O [Aspartame, aspartame] (HELM PEPTIDE1{D.F.[CO[*:1]]}$$$$V2.0) | 4.5
COC(=O)[C@H](Cc1ccccc1)NC(=O)[C@H](CC(=O)O)NCCCc1ccc(OC)c(O)c1 [Advantame, advantame] | 7.8
CC1=CC(=O)NS(=O)(=O)O1 [Acesulfame K, acesulfame potassium] | 3.2
COC(=O)[C@H](Cc1ccccc1)NC(=O)[C@H](CC(=O)O)NCCC(C)(C)C [Neotame, neotame] | 7.1
C[C@H](NC(=Nc1ccc(C#N)cc1)NCC(=O)O)c1ccccc1 [SC-45647, [3-[(S)-1-phenylethyl]-2-(4-cyanophenyl)guanidino]acetic acid] | 5.4
OC[C@H]1O[C@H](O[C@]2(CCl)O[C@H](CCl)[C@@H](O)[C@@H]2O)[C@H](O)[C@@H](O)[C@H]1Cl [Sucralose, sucralose] | 5.7
